Results taken from patent US20160354300A1, “Low Viscosity Hair Care Composition” (The Procter & Gamble Company, priority 2015, published 2016).
Where a name gives a salt, the structure may show the parent alone.

Assays:
[1] = Kinematic viscosity at 40 C of surfactant base formulation with added agent (Cannon viscometer); assay type: physicochemical; details: for Lowest viscosity achieved (cSt): Table 1, base formulation 24% sodium undecyl sulfate, 6% lauramidopropyl betaine, 1.6% perfume, agent at 2%, 4%, 6%, 8%, 40° C.; for Kinematic viscosity at 40 C. [cSt], 2% oil: agent added at 2% to base formulation; for Kinematic viscosity at 40 C. [cSt], 4% oil: agent added at 4% to base formulation; for Kinematic viscosity at 40 C. [cSt], 6% oil: agent added at 6% to base formulation; for Kinematic viscosity at 40 C. [cSt], 8% oil: agent added at 8% to base formulation
From the text: Referring to Tables 1 and 2, the base formulations were made by mixing 1.6% perfume, 24% sodium undecyl sulfate (CAS#1072-24-8) active, 6% lauramidopropyl betaine (CAS#4292-10-8) active and 60.4% deionized water which leaves 8% unfilled for the addition of a viscosity reducing agent (the balance being filled in by distilled water). For all compositions, the surfactant, water and additives including viscosity reducing agents were expected to be in a single phase.
The agents from Tables 1 and 2 were added to the base formulation at a percentage of 2%, 4%, 6%, and 8% into the above surfactant solution. The subsequent formulations were vortexed and put into oven at 60° C. overnight to form homogeneous solution. The viscosities of the formulations were measured with calibrated viscometers (Size 200/350/450) from Cannon Instrument Company (2139 High Tech Road, State College, Pa., USA, 16803).
After the equilibration, the formulations were drawn to reach the starting mark with a rubber suction bulb and the flow time between the starting mark and end mark was recorded for calculation. Each formulation was measured three times to calculate average and standard deviation. Between samples, viscometer was cleaned with water and acetone to rinse off residual.
Viscosity values were calculated based on the equation:
Viscosity (mm^2/s·(cSt))=Time (s)*Constant (mm^2/s^2·(cSt/s))
The time in the above equation is the flow time recorded in the experiment and the constant numbers for each calibrated viscometer were obtained from the manuals. […]
The viscosities of the formulations are measured with calibrated viscometers (Size 200/350/450) from Cannon Instrument Company (2139 High Tech Road, State College, Pa., USA, 16803). Prior to the measurement, the formulations are equilibrated in the viscometer reservoir for 30 min at 40° C. in water bath to ensure a homogeneous temperature is reached in the system. […]

[2] = Visual cloudiness of surfactant formulation with added agent after 20:1 dilution with water; assay type: physicochemical; set-up: key: Samples that appeared cloudy (turbid) within less than a day were noted as cloudy (“Yes”); Samples that did not appear cloudy (turbid) within less than a day were noted as not cloudy (“No”); details: 0.5 g formula, 10 ml deionized water; for Cloudy at 1:20 dilution at 2%, 4%, and/or 6%: Table 3, visual, within less than a day; for Added at 2%: cloudy at 20:1 dilution: agent at 2%; for Added at 4%: cloudy at 20:1 dilution: agent at 4%; for Added at 6%: cloudy at 20:1 dilution: agent at 6%; for Added at 8%: cloudy at 20:1 dilution: agent at 8%
Procedure: Now referring to Tables 3 and 4, the following surfactant formulations were made by mixing 1.6% perfume, 24% sodium undecyl sulfate (CAS#1072-24-8) active, 6% lauramidopropyl betaine (CAS#4292-10-8) active, and 60.4% deionized water which leaves 8% unfilled for the addition of the listed agents (the balance being filled in by distilled water). The agents were added at a percentage of 2%, 4%, 6%, and 8% into the above surfactant formulation. The resulting formulations were vortexed and put into oven at 60° C. overnight to form homogeneous solution. For all formulations, the surfactant, water and additives, including the added agents, were expected to be in a single phase.
The resulting formulations were weighed out in a scintillation vial combined with 10 ml of water to achieve a representative dilution during use: 0.5 g formula, 10 ml deionized water for 20:1 dilution. After the combination of the ingredients, the vial was vigorously shaken by hand and the samples were visually inspected by looking at the solution against a dark background. Samples that appeared cloudy (turbid) within less than a day were noted as cloudy (“Yes”). […] Samples that appeared cloudy at the 20:1 dilution for any of the 2%, 4% or 6% concentration of oil may be most desirable by requiring a limited amount of the agent to be added, limiting cost and trade-offs associated with higher levels.
The appearance of a cloudy formulation at 1:20 dilution at 2%, 4%, and/or 6% can signal improved deposition of surfactant soluble active agents during consumer use.

SMILES	Lowest viscosity achieved (cSt) [1] [cSt]	Kinematic viscosity at 40 C. [cSt], 2% oil [1] [cSt]	Kinematic viscosity at 40 C. [cSt], 4% oil [1] [cSt]	Kinematic viscosity at 40 C. [cSt], 6% oil [1] [cSt]	Kinematic viscosity at 40 C. [cSt], 8% oil [1] [cSt]	Cloudy at 1:20 dilution at 2%, 4%, and/or 6% [2]	Added at 2%: cloudy at 20:1 dilution [2]	Added at 4%: cloudy at 20:1 dilution [2]	Added at 6%: cloudy at 20:1 dilution [2]	Added at 8%: cloudy at 20:1 dilution [2]
C=C(C)[C@H]1CC=C(C)CC1 [Dipentene]	35	307.6	74.5	35.1	42.6	Yes	No	No	Yes	Yes
C=CC(C)(CCC=C(C)C)OC(=O)C(C)C (stereo not shown) [Linalyl Iso Butyrate]	38	223.4	73.0	37.7	39.9	Yes	No	No	Yes	Yes
CCCCOC(=O)c1ccccc1O [Butyl Salicylate]	368	367.9				No	No			
COC(C)(C)C1CC=C(C)CC1 (stereo not shown) [Orange Flower Ether]	419	552.2	418.8							
CCCCCC(=O)OCC(C)C [Isobutyl Hexanoate]	109	390.0	177.9	140.9	109.4	No	No	No	No	Yes
CC(C)COC(=O)c1ccccc1O [Iso Butyl Salicylate]	409	408.7				No	No	No		
CCC(=O)O[C@@H]1C[C@H]2CC[C@]1(C)C2(C)C (racemic) [Iso Bornyl Propionate]	463	463.1								
CC(=O)CCc1ccc(O)cc1 [Raspberry Ketone]	33	151.9	107.4	54.0	33.0					
CC1=CC=C(C(C)C)CC1 [alpha-Terpinene]	42	324.4	96.0	41.5	46.7	Yes	No	No	Yes	Yes
CCC(=O)OC1CC2CC1C1CC=CC21 (stereo not shown) [Cyclaprop]	404	404.2				No	No	No		
CCCCCC1(C)CCC(C)(C)C1=O (stereo not shown) [Veloutone]	47	260.2	129.1	56.3	47.3	Yes	No	No	Yes	Yes
CC12CCC(CC1=O)C2(C)C (stereo not shown) [Camphor Gum]	127	365.8	127.2							
CC(=O)OCCC(C)CCCC(C)C (stereo not shown) [3,7-Dimethyloctyl Acetate]	446	445.7				No	No			
CC(CC=O)CCCC(C)(C)O (stereo not shown) [Hydroxycitronellal]	34	310.8	145.4	65.9	34.1					
CCOC(=O)CC(O)(CC(=O)OCC)C(=O)OCC [Triethyl Citrate]	41	269.4	136.6	66.6	40.5					
CCC(CC(C)CC)=NO (stereo not shown) [5-Methyl-3-Heptanone Oxime]	246	246.3								

Second part, the compound after the results:

Lowest viscosity achieved (cSt) [1] [cSt]	Kinematic viscosity at 40 C. [cSt], 2% oil [1] [cSt]	Kinematic viscosity at 40 C. [cSt], 4% oil [1] [cSt]	Kinematic viscosity at 40 C. [cSt], 6% oil [1] [cSt]	Kinematic viscosity at 40 C. [cSt], 8% oil [1] [cSt]	Cloudy at 1:20 dilution at 2%, 4%, and/or 6% [2]	Added at 2%: cloudy at 20:1 dilution [2]	Added at 4%: cloudy at 20:1 dilution [2]	Added at 6%: cloudy at 20:1 dilution [2]	Added at 8%: cloudy at 20:1 dilution [2]	SMILES
18	21.1	18.1			No	No	No			CCCCCCCCCCCCCCCC [Hexadecane]
32	238.0	65.0	31.7		Yes	No	No	Yes	Yes	CC1=CCC(C(C)C)=CC1 [gamma-Terpinene]
363	362.7				No	No				CC(=O)OCCC(C)CCC=C(C)C (stereo not shown) [Citronellyl Acetate]
119	334.9	119.1			No	No				CCCCCCC1C(=O)CCC1C(=O)OC (stereo not shown) [Dihyro Iso Jasmonate]
86	366.5	166.8	97.5	86.4						C=C(C)[C@H]1CC=C(C)CC1 [Limonene]
308	500.7	308.1								CCCCCCCC(OC)OC [1,1-Dimethoxyoctane]
29	205.6	111.0	50.8	29.2						CCO [Ethanol]
